Entries after “also recorded” stand apart in the source; their conditions may differ.
How the values were obtained:
[1] = test system: acetylated histone 3 (H3); experiment: Western blot, acetylated histone 3 in RPMI-8226 cells; type: cell-based, human; conditions: 24 h, 1, 5, and 10 μM
Experimental: (§1) RPMI-8226 cells (1 × 10^6) were seeded overnight and incubated with compound 8f for 24 h on indicated concentrations. Cell extract was prepared by lysing cultured cells with a mammalian protein extraction reagent supplemented with EDTA-free protease inhibitor for 15 min. SDS-PAGE and immunoblot analysis were conducted as described. Antibodies for Ac-H3 (abcom, AB32129) and Ac-ɑ-tubulin (Cell Signaling, 2144) were used.

SNB-19 = experiment: NCI-60 antiproliferative screening, SNB-19; type: cell-based; conditions: Homo sapiens, SNB-19 (CNS Cancer), read-out: Inhibition% values at 10 μM concentration
Source text: (§2) Then, 8f was submitted to NCI for antiproliferative evaluation against 59 different tumor cell lines. The cancer types of the NCI-60 program include leukemia, non-small cell lung cancer (NSCLC), colon cancer, CNS cancer, melanoma, ovary cancer, renal cancer, prostate cancer, and breast cancer.

ACHN = experiment: NCI-60 antiproliferative screening, ACHN; type: cell-based; conditions: Homo sapiens, ACHN (Renal Cancer), read-out: Inhibition% values at 10 μM concentration
Source text: as §2

LOX IMVI = experiment: NCI-60 antiproliferative screening, LOX IMVI; type: cell-based; conditions: Homo sapiens, LOX IMVI (Melanoma), read-out: Inhibition% values at 10 μM concentration
Source text: as §2

SW-620 = experiment: NCI-60 antiproliferative screening, SW-620; type: cell-based; conditions: Homo sapiens, SW-620 (Colon Cancer), read-out: Inhibition% values at 10 μM concentration
Source text: as §2

T-47D = experiment: NCI-60 antiproliferative screening, T-47D; type: cell-based; conditions: Homo sapiens, T47D, T-47D (Breast Cancer), read-out: Inhibition% values at 10 μM concentration
Source text: as §2

HL60 = experiment: NCI-60 antiproliferative screening, HL60; type: cell-based; conditions: Homo sapiens, HL-60, HL60 (Leukemia), read-out: Inhibition% values at 10 μM concentration
Source text: as §2

NCI-H522 = experiment: NCI-60 antiproliferative screening, NCI-H522; type: cell-based; conditions: Homo sapiens, NCI-H522 (Non-Small Cell Lung Cancer), read-out: Inhibition% values at 10 μM concentration
Source text: as §2

KM12 = experiment: NCI-60 antiproliferative screening, KM12; type: cell-based; conditions: Homo sapiens, KM12 (Colon Cancer), read-out: Inhibition% values at 10 μM concentration
Source text: as §2

HCT-15 = experiment: NCI-60 antiproliferative screening, HCT-15; type: cell-based; conditions: Homo sapiens, HCT-15 (Colon Cancer), read-out: Inhibition% values at 10 μM concentration
Source text: as §2

CAKI-1 = experiment: NCI-60 antiproliferative screening, CAKI-1; type: cell-based; conditions: Homo sapiens, CAKI-1 (Renal Cancer), read-out: Inhibition% values at 10 μM concentration
Source text: as §2

IGROV1 = experiment: NCI-60 antiproliferative screening, IGROV1; type: cell-based; conditions: Homo sapiens, IGROV-1, IGROV1 (Ovarian Cancer), read-out: Inhibition% values at 10 μM concentration
Source text: as §2

acetylated α-tubulin = experiment: Western blot, acetylated α-tubulin in RPMI-8226 cells; type: cell-based, human; conditions: 24 h, 1, 5, and 10 μM
Experimental: as §1

SK-OV-3 = experiment: NCI-60 antiproliferative screening, SK-OV-3; type: cell-based; conditions: Homo sapiens, SK-OV-3 (Ovarian Cancer), read-out: Inhibition% values at 10 μM concentration
Source text: as §2

HDAC5 = target: T1, HDAC5 (Homo sapiens, UniProt Q9UQL6); experiment: In vitro HDAC enzyme assay (Reaction Biology Corporation), HDAC5; type: biochemical; conditions: Table 2 isozyme screen; duplicate, SD < 15%
T1 construct: purchased Reaction Biology Corporation

UACC-257 = experiment: NCI-60 antiproliferative screening, UACC-257; type: cell-based; conditions: Homo sapiens, read-out: Inhibition% values at 10 μM concentration
Source text: as §2

SF-295 = experiment: NCI-60 antiproliferative screening, SF-295; type: cell-based; conditions: Homo sapiens, SF-295 (CNS Cancer), read-out: Inhibition% values at 10 μM concentration
Source text: as §2

M14 = experiment: NCI-60 antiproliferative screening, M14; type: cell-based; conditions: Homo sapiens, M14 (Melanoma), read-out: Inhibition% values at 10 μM concentration
Source text: as §2

PC-3 = experiment: NCI-60 antiproliferative screening, PC-3; type: cell-based; conditions: Homo sapiens, PC-3 (Prostate Cancer), read-out: Inhibition% values at 10 μM concentration
Source text: as §2

SK-MEL-2 = experiment: NCI-60 antiproliferative screening, SK-MEL-2; type: cell-based; conditions: Homo sapiens, SK-MEL-2 (Melanoma), read-out: Inhibition% values at 10 μM concentration
Source text: as §2

BT-549 = experiment: NCI-60 antiproliferative screening, BT-549; type: cell-based; conditions: Homo sapiens, BT-549 (Breast Cancer), read-out: Inhibition% values at 10 μM concentration
Source text: as §2

MOLT-4 = experiment: NCI-60 antiproliferative screening, MOLT-4; type: cell-based; conditions: Homo sapiens, MOLT-4 (Leukemia), read-out: Inhibition% values at 10 μM concentration
Source text: as §2

COLO 205 = experiment: NCI-60 antiproliferative screening, COLO 205; type: cell-based; conditions: Homo sapiens, COLO 205 (Colon Cancer), read-out: Inhibition% values at 10 μM concentration
Source text: as §2

DU-145 = experiment: NCI-60 antiproliferative screening, DU-145; type: cell-based; conditions: Homo sapiens, DU-145 (Prostate Cancer), read-out: Inhibition% values at 10 μM concentration
Source text: as §2

UO-31 = experiment: NCI-60 antiproliferative screening, UO-31; type: cell-based; conditions: Homo sapiens, UO-31 (Renal Cancer), read-out: Inhibition% values at 10 μM concentration
Source text: as §2

RPMI-8226 = experiment: Antiproliferative assay (Alamar blue, 72 h), RPMI-8226; type: cell-based, human; conditions: Homo sapiens, RPMI-8226 cells, three independent experiments, SD < 10%, read-out: Antiproliferative effect IC50, RPMI-8226
Experimental: The cells were cultured in IMDM (Gibco) medium with 20% FBS (Lonsera), 100 U/mL penicillin, and 100 µg/mL streptomycin (Solarbio). All cells were maintained at 37 °C in a humidified atmosphere of 5% CO2 in air. Briefly, 100 µL cell suspension or completed medium was plated into a 96-well plate. Compounds were added and incubated for 72 h. Then, 22 µL Alamar blue solution (1 mM) was pipetted into each well of a 96-well plate, and the plate was incubated for an additional 5~6 h. The absorbance (OD) was read at 530/590 nm. Data were normalized to vehicle groups (DMSO) and represented as the means of three independent measurements with standard errors of <20%. The IC50 values were calculated using Prism 5.0.

T1 sequence (Q9UQL6 whole entry): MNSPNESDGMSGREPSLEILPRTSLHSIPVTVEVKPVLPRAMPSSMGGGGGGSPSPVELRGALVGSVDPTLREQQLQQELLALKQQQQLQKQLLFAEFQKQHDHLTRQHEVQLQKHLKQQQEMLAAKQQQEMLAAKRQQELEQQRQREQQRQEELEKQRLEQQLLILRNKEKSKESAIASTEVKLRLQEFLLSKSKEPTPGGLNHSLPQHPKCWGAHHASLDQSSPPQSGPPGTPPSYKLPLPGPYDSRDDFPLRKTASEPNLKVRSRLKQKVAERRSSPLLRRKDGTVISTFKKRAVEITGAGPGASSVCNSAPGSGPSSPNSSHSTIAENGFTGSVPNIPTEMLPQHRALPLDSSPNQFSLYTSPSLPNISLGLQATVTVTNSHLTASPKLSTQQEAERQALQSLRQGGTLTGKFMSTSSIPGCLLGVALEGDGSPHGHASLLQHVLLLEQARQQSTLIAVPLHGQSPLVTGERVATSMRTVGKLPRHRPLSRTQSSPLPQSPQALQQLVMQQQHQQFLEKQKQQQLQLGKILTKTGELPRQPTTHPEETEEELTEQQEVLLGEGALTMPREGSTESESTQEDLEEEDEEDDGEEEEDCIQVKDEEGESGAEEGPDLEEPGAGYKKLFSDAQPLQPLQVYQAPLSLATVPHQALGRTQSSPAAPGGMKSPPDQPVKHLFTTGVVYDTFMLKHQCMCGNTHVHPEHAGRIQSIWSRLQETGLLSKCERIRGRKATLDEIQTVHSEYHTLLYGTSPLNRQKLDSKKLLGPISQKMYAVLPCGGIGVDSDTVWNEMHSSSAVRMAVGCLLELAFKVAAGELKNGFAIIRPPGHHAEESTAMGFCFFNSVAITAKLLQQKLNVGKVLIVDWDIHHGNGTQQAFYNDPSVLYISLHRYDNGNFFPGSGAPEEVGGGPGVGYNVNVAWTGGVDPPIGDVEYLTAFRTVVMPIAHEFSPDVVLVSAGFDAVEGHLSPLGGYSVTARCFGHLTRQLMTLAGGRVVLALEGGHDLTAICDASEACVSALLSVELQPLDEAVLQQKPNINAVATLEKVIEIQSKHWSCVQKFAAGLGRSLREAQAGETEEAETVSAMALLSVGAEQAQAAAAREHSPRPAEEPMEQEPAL

With COc1cccc(-c2nc3c(c(-c4cccc(OC)c4)n2)CCN(C(=O)CCCCCCC(=O)NO)C3)c1 [Compound 8f, 8-(2,4-Bis(3-methoxyphenyl)-5,8-dihydropyrido [3,4-d]pyrimidin-7(6H)-yl)-N-hydroxy-8-oxooctanamide] the melting point was 117 to 118 °C, the “levels of acetylated histone 3 (H3)” value [1] was “only modest changes” and the inhibition at 10 µM (SNB-19) was 100%. For the same compound, the inhibition at 10 µM (ACHN) was 100%, the inhibition at 10 µM (LOX IMVI) was 100% and the inhibition at 10 µM (SW-620) was 100%. The inhibition at 10 µM (T-47D) was 100%, the inhibition at 10 µM (HL60) was 100% and the inhibition at 10 µM (NCI-H522) was 69.1%. The inhibition at 10 µM (KM12) was 88.4%, the inhibition at 10 µM (HCT-15) was 100% and the inhibition at 10 µM (CAKI-1) was 100%. For the same compound, the inhibition at 10 µM (IGROV1) was 100%, the “levels of acetylated α-tubulin” value (acetylated α-tubulin) was “increase the levels of acetylated α-tubulin in a dose-dependent manner; also recorded: elevated the levels of acetylated α-tubulin in a dose-dependent manner” and the inhibition at 10 µM (SK-OV-3) was 100%. The “HDAC5 IC50” value (HDAC5) was “poor activity”, the IC50 (HDAC5) was over 10000 nM and the inhibition at 10 µM (UACC-257) was 98.7%. For the same compound, the inhibition at 10 µM (SF-295) was 100%, the inhibition at 10 µM (M14) was 90.5% and the inhibition at 10 µM (PC-3) was 83.3%. For the same compound, the inhibition at 10 µM (SK-MEL-2) was 100%, the inhibition at 10 µM (BT-549) was 81.9% and the inhibition at 10 µM (MOLT-4) was 87.7%. For the same compound, the inhibition at 10 µM (COLO 205) was 100%, the inhibition at 10 µM (DU-145) was 89.8% and the inhibition at 10 µM (UO-31) was 100%. It also gave an IC50 (RPMI-8226) of 2800 nM.

— PMC10648541, “Design, Synthesis, and Antiproliferative Activity of Selective Histone Deacetylases 6 Inhibitors Containing a Tetrahydropyridopyrimidine Scaffold” (Molecules, 2023)
